Data as given in a melting point compilation (Tetko et al.; mined from patent text by program, amines drawn as free bases though some values may be those of a salt).

melting point [°C] | SMILES
79 to 80 | CCC(=O)NC[C@@H]1C[C@H]1c1cccc2nn(C)cc12 (relative stereo)
107 to 117 | CC(C)(C)NC(=O)C1CCCN1C(=O)C(O)C(Cc1ccccc1)NC(=O)C(CC(N)=O)NC(=O)COc1cccc(NC(=O)OCc2ccccc2)c1 (stereo not drawn)
186 to 188 | CCNC(=O)Nc1ccc(N(C)C)cc1C(=O)NCC1CCN(C(c2ccccc2)c2ccccc2)CC1
74 to 75 | COC(=O)Cc1ccccc1OCc1ccccc1
144 to 145 | CS(=O)(=O)c1ccc(Cc2ccc3ccccc3c2O)cc1
79.5 | Cc1cccc(-c2cn(C)cc(-c3ccccc3)c2=O)c1
170 to 172 | O=C1c2ccccc2COc2cc(C=NO)ccc21
60 to 63 | NC(=NCCN(Cc1ccc(F)cc1)c1ccccn1)NCCCc1c[nH]cn1
159 to 160 | Cc1c(NC(=O)c2ccc(OCc3ccc(F)cc3)cc2)ccc2cc(CN3CCCCC3)cnc12
74 to 76 | CCOC(=O)C(C(=O)OCC)C(Cc1cc(C(F)(F)F)ccc1N)c1ccccc1Cl (stereo not drawn)
96 to 97 | O=C1N[C@H](CO)C[C@H]1C1CCCCC1
69 to 70 | COc1ccc(COc2nc(Cl)c(C(C)C)c(OCc3ccc(OC)cc3)n2)cc1
176 to 177 | O=c1cc2sc3ccccc3nc-2c2ccccc12
240 to 242 | O=C1NCCN(c2ccc(OC(F)(F)C(F)F)cc2)C1=O
118 to 120 | C=C(c1cc(F)ccc1OCc1ccc(Cl)cc1Cl)n1ccnc1
220 to 223 | O=C(Nc1ccc2c(c1)CCC2)c1ccccc1C(c1ccc(O)cc1)c1ccc(O)cc1
169 to 170 | O=C1N(Cc2ccc(OCc3ccccc3)cc2)c2ccccc2C12COc1cc3c(cc12)CCO3 (stereo not drawn)
232 to 234 | COc1cccc(Oc2ccc(C(=O)O)cc2C(=O)O)c1
128 to 135 | CC1(C)SC2C(NC(=O)C(NC(=O)CBr)c3ccccc3)C(=O)N2C1c1nnn[nH]1 (stereo not drawn)
82 to 84 | CCOC(=O)CC(NC(C)=O)C(=O)c1ccco1 (stereo not drawn)
220 to 221 | CCCCN(CCCC)c1ccc(C=CC2=C(C#N)C(=C(C#N)C#N)OC2(C)C)c(O[Si](c2ccccc2)(c2ccccc2)C(C)(C)C)c1
120 to 122 | CCNC(=O)c1c([Si](C)(C)C)ccc(C)c1Cl
121 to 122 | CCn1c(N(C)C)nc2cc(C(F)(F)F)c(Cl)c([N+](=O)[O-])c21
140 to 141 | [N-]=[N+]=Nc1c(F)c(F)c(C(=O)O)c(F)c1F

melting point [°C] | SMILES
85 to 86 | N#Cc1ccc(Oc2ccccc2)cc1Oc1ccccc1
108 to 110 | COc1ccc(OC)c2nc(Cl)c(CCCl)cc12
133 to 134 | COC(=O)c1ccc(OCC(O)c2ccc3c(c2)C(C)(C)CCC3(C)C)cc1O (stereo not drawn)
88 to 90 | Brc1cccc(-c2csc(Br)n2)c1
224 to 226 | CC(C)Oc1ccc(-c2nn(C(C)c3oc4ccccc4c(=O)c3-c3cccc(F)c3)c3ncnc(N)c23)cc1 (stereo not drawn)
135 to 136 | Cc1cc2c(cnn2-c2c(Cl)cc(C(F)(F)F)cc2Cl)nc1C
191 to 193 | CSc1ncnc2c1ncn2COC(COC(C)=O)COC(C)=O
226 to 227 | Cc1noc(NC(=O)N2CCN(c3nccc(-c4ccc(F)cc4)n3)CC2)c1C
> 210 | CC(=O)c1c[nH]c2nccc(-c3ccccc3)c12
120 | Cc1ccccc1-c1nccc2c(CC#N)cccc12
85 to 86 | O=C(N[C@H]1CCC[C@@H]1O)C(O)=CC(=O)c1cc(Cc2ccc(F)cc2F)cn(Cc2ccc(F)cc2)c1=O
109 to 110 | O=C(NC1CCCCC1=Cc1ccccc1)C(F)(F)F (stereo not drawn)
131 to 132 | C#CCNC(=C[N+](=O)[O-])SC
152 to 154 | O=C(c1ccccc1)c1ccc2nc(C(F)(F)F)c(Br)nc2c1
103 to 104 | Cc1cc(C)n(-c2nc(-c3ccc(Cl)cc3)c(CCCOc3ccccc3C)o2)n1
250 to 255 | O=C(NC12CC3CC(CC(C3)C1)C2)c1cc(O)c(O)cc1[N+](=O)[O-]
175 to 177 | O=C1NN(C(=O)Oc2ccc(Cl)cc2)C(c2ccccc2)C1c1ccccc1 (stereo not drawn)
134 to 138 | COC12CC(CO)CN(C)C1CC1CNc3cccc2c31 (stereo not drawn)
127 to 129 | CCCCCCN1CC(C(=O)OC)N(S(=O)(=O)c2ccc(-c3ccc(Br)cc3)cc2)CC1=O (stereo not drawn)
245 to 248 | Cc1cc2c(cc1Cl)C(NCCC1CCN(C(=O)OC(C)(C)C)CC1)(c1ccccc1Cl)C(=O)N2 (stereo not drawn)
134 to 135 | CCOc1nn(-c2ccc(C(F)(F)F)cn2)cc1CCCOc1cccc(CC(=O)O)c1
127 to 129 | COC(=O)C(=O)C1C(=O)C(=O)C(CCCCCCC(=O)O)C1=O (stereo not drawn)
239 to 241 | O=C1c2cccc3cc([N+](=O)[O-])cc(c23)C(=O)N1OCc1ccccc1
177 to 178 | Cc1onc2c1NC(=O)COC2(C)c1ccccc1 (stereo not drawn)

melting point [°C] | SMILES
153 to 158 | CC(CO)Nc1c(F)cc2c(=O)c(C(=O)O)cn(-c3cc(N)c(F)cc3F)c2c1Cl (stereo not drawn)
> 350 | O=c1[nH]c2cc(Cl)ccc2c(O)c1-c1ccc2ccccc2c1
216 | Cc1nn(CCCl)c(-c2ccc(F)cc2)c1-c1ccc2c(c1)NC(=O)CO2
194 to 196 | COc1cc2nc(N3CCN(C)CC3)n3ncnc3c2cc1OC
112 to 113 | COc1ccc(C(=O)c2ccc(OCCBr)cc2)cc1
270 to 272 | Clc1ccc2c(c1)c(-c1ccccc1)nc1nccn12
90 to 93 | CN1CCC(Oc2ccc(F)cc2C(N)=O)C1 (stereo not drawn)
82 | COC(=O)CC[C@H](NC(=O)c1ccc(NCC(=O)OCc2ccccc2)cc1)C(=O)OC
135 to 140 | C#Cc1ccc(NC(=O)CCCC(=O)O)cc1
112 to 115 | CSCc1cc([N+](=O)[O-])ccc1N1C(=O)c2ccc(Cl)cc2C1=O
73 to 75 | CC(C)=CCN1CCc2c(sc(N)c2C(=O)c2ccc(Br)cc2)C1
174 to 175 | COc1ccc(C(=O)Nc2ccccc2)cc1NC(=S)Nc1ccc(Cl)c([N+](=O)[O-])c1
236 to 237 | CCCc1cc(=O)oc2c(C=O)c(O)cc(O)c12
113 to 115 | CC(C)(C)NC(=O)[C@@H]1CCCN1C(=O)[C@@H](O)[C@H](Cc1ccccc1)NC(=O)[C@H](CC(N)=O)NC(=O)OC(C)(C)C
200 to 202 | O=C(O)c1ccc(NCC=Cc2ccccc2)cc1
238 to 240 | O=C(CN1CCC(OCc2ccccc2)CC1)Nc1ccc2c(c1)OCC(=O)N2
138 to 140 | Nc1ccc(Cn2cnnn2)cc1
70 to 71 | Cc1c[nH]c(C)c1C(C)(C)C
160 to 162 | CCn1c(=O)sc2cc(C(O)c3ccc([N+](=O)[O-])cc3)ccc21 (stereo not drawn)
182 | CN(C)CCCCNC(=O)c1cnc2c(c1)N(Cc1cc(Cl)ccc1C(F)(F)F)CCN2
> 300 | O=c1[nH]c2cc(Cl)c(Cl)cc2cc1P(=O)(O)O
151 to 152 | CC(C)(CCCOc1ccccc1)C(=O)O
61 to 61.5 | COc1ccc(OC)c(C=O)c1C
70 | CCOC(=O)c1cn(C(C)CSc2ccccc2)c2nc(F)c(Cl)cc2c1=O (stereo not drawn)

melting point [°C] | SMILES
220 to 222 | CN(C)N=Nc1cc(-c2ccccc2)sc1C(N)=O
121 | Cc1cc(C)cc(C(=O)N2CCC(N3CCC(NC(=O)c4ccccc4N)CC3)CC2Cc2ccccc2)c1 (stereo not drawn)
140 | COc1ccccc1C1CC(=O)Oc2ccc(C)cc21 (stereo not drawn)
128 to 131 | CCc1nc2c(cnn2CC)c(NC2CCOCC2)c1CNC(=O)c1cccc(C(=O)NCc2ccc(F)c(-c3cccc(CN4CCCCC4)c3)c2)c1
216 to 218 | O=C1c2ccccc2C2(O)Oc3c(ccc4ccccc34)C12O (stereo not drawn)
184 to 188 | Cc1cc(C)c2cccc(OCc3c(Cl)ccc(S(=O)(=O)N4CCC[C@H]4C(=O)NCCCNC(=O)Cc4ccc(C=NN)cc4)c3Cl)c2n1
99 to 101 | CC(C)c1nc(Cl)nc(-c2ccc(F)cc2)c1Br
167 to 168 | CCCCc1cc(C#N)sc1-c1ccc2c(c1)C(C)(C)OC(=O)N2
98 | Cc1ccc(NCCCCOc2ccc3ccccc3c2)cc1
118 to 120 | CCOC(=O)Cn1c2c(c3c(Cl)ccc(Cl)c31)CCN(C(=O)OC(C)(C)C)CC2
155 to 158 | N#Cc1ccc(N2CCN(c3ccncc3)CC2)cc1
140 to 142 | CN(C)C=NC(=O)c1c(N2CCN(Cc3ccccc3)CC2)nn2c(-c3cccc(C(F)(F)F)c3)ccnc12
122 to 123 | CCN(CC)CCCNC(=O)c1ccc(S(N)(=O)=O)cc1
245 to 255 | N#CN=c1[nH]c2c([N+](=O)[O-])c(Cl)c(Cl)cc2nc1Cl
248 to 249 | CCc1cnc(N2CCN(C(=O)c3ccc(Nc4ncnc5ccccc45)cc3)CC2)nc1
108 to 110 | CC(=O)N1CCC(c2nccc3occc23)CC1
276 to 278 | C=C1SC(=O)N(c2ccc3cc(-c4ccc(O)c(C(C)(C)C)c4)ccc3c2)C1=O
105 to 107 | CC(C)NC(=O)CC(O)(Cn1cncn1)c1ccc(Cl)cc1Cl (stereo not drawn)
97 to 99 | CCNC(=O)C1CC(=O)N(Cc2ccccc2)C1 (stereo not drawn)
125 to 126 | CCOC(=O)c1cc(Br)cc2c(=O)c(OCCCN3CCN(Cc4ccc5ccccc5n4)CC3)c(-c3ccccc3)oc12
106 to 107 | COC(C(=O)O)c1nn(-c2ccccc2)c2c1CCC2 (stereo not drawn)
> 200 | N#Cc1ccc(-c2ccc(N3CCCNC3=O)cc2)cc1

SMILES | melting point [°C]
CN1C(=S)N(c2ccc(C#N)c(C(F)(F)F)c2)C(=O)C1(CF)CF | 122 to 123
O=C1NC(=S)NC(=O)C1=Cc1ccc([N+](=O)[O-])s1 | 285
CCOC(=O)N1Cc2ccccc2P1(C)=O (stereo not drawn) | 102 to 104
Cc1c(CCC(=O)c2cn(Cc3ccccc3)c3ccccc23)ncn1C(c1ccccc1)(c1ccccc1)c1ccccc1 | 186 to 188
